This is an account of results in patent publication US20080090900A1, “ANTIBIOTIC BUSHRIN” (University of Karachi, priority 2006, published 2008).

This test has as its system Clostridium sporogenes. Briefly: microbe, parasite or virus in culture. The test is classed as cell-based.

Regarding `Cc1cc(O)c2c(c1)C=CC(C)(c1ccoc1)C2` (stereo not shown) [Compound 1, 7-(3-furyl)-3,7-dimethyl-7,8-dihydro-1-naphthalenol], the “antibacterial activity” value is listed as “less active”.
